Experimental data taken from patent US4145554A, “3-Nitropyrazole derivatives” (Eli Lilly and Company, priority 1977, dated 1979).
Values after ≈ are worked out from the molar mass of the structure shown. Read-outs that look alike come from different tables or passages of the source.

Columns and labels:
Salmonella typhimurium = experiment: Salmonellosis in chickens, single injection to day-old chicks; format: in vivo; conditions: for responders at 60 mg/kg: Salmonella enterica, TYPHIMURIUM, 168 h, single injection of 60 mg./kg., seven days, read-out: Survival (converted)
Protocol: A number of our 3-nitropyrazoles have been tested against an induced infection of Salmonella typhimurium in day-old chicks. The test was conducted by administering a single injection of 60 mg./kg. of the compounds to each of five chicks. The following day, the chicks were challenged by the subcutaneous injection of a dispersion of S. typhimurium organisms sufficient to kill most or all of the untreated control chicks.
Some of the compounds were tested more than once, in which instances the data are reported as the total survivors from the multiple treatment groups. Untreated, challenged control groups of chicks were tested together with each batch of groups of chicks to which test compounds were administered. Since the mortality of the untreated control chicks varied somewhat from one group of tests to another, results of the untreated control groups are reported below with each test.

Streptococcus sp. 80 = experiment: in vitro tube dilution test (MIC); format: cell-based
Source text: (§1) Other compounds of our invention have also been tested in the tube dilution test and shown to have in vitro activity against a number of microorganisms. The table below reports tests of a number of exemplary compounds against exemplary microorganisms. The compounds are identified by their numbers in the listing above. The data are reported as the MIC in micrograms per milliliter against the named exemplary microorganisms.

Escherichia coli = experiment: in vitro tube dilution test (MIC); format: cell-based
Source text: (§2) Our compound, 1-(2-hydroxyethyl)-3-nitro-4-pyrazolecarboxamide, has been extensively tested in vitro to determine the range of microorganisms against which it is active. The table of data below reports the minimum inhibitory concentration (MIC) at which the compound is effective in controlling a variety of microorganisms in a standard tube dilution test system. The MIC is reported as micrograms of compound per milliliter.
as §1

Mycoplasma gallisepticum = experiment: in vitro tube dilution test (MIC); format: cell-based; conditions: Mycoplasmoides gallisepticum
Source text: as §2, §1

Pasteurella multocida = experiment: in vitro tube dilution test (MIC); format: cell-based
Source text: as §2
(§3) The other preferred compounds of our invention have also been thoroughly tested in the in vitro tube dilution test.
as §1

Salmonella dublin = experiment: in vitro tube dilution test (MIC); format: cell-based; conditions: Salmonella enterica
Source text: as §3, §1

[1] = tested on: Staphylococcus aureus sp. 1130; experiment: in vitro tube dilution test (MIC); format: cell-based
Source text: as §3, §1

Vibrio coli 3811 = experiment: in vitro tube dilution test (MIC); format: cell-based; conditions: Campylobacter coli
Source text: as §3, §1

[2] = Streptococcus sp. 80, tube dilution, read-out: MIC
[3] = Mycoplasma gallisepticum, tube dilution, read-out: MIC
[4] = Salmonella dublin, tube dilution, read-out: MIC
[5] = Staphylococcus aureus sp. 1130, tube dilution, read-out: MIC
[6] = Vibrio coli 3811, tube dilution, read-out: MIC

Cc1ccc(C(=O)OCCn2cc(C(N)=O)c([N+](=O)[O-])n2)cc1 [Compound 76, [2-(4-carbamoyl-3-nitropyrazol-1-yl)ethyl] p-toluate]
responders at 60 mg/kg (Salmonella typhimurium): 100%

CCOC(=O)OCCn1cc(C(N)=O)c([N+](=O)[O-])n1 [Compound 78, [2-(4-carbamoyl-3-nitropyrazol-1-yl)ethyl] ethyl carbonate]
responders at 60 mg/kg (Salmonella typhimurium): 40%

CCOC(Cn1cc(C(N)=O)c([N+](=O)[O-])n1)OCC [Compound 82, 1-(2,2-diethoxyethyl)-3-nitro-4-pyrazolecarboxamide]
MIC (Streptococcus sp. 80; [2]): 50 µg/mL (≈ 184 µM)
MIC (Escherichia coli; tube dilution, read-out: MIC): 50 µg/mL (≈ 184 µM)
MIC (Mycoplasma gallisepticum; [3]): 25 µg/mL (≈ 91.8 µM)
MIC (Pasteurella multocida; tube dilution, read-out: MIC): 50 µg/mL (≈ 184 µM)
MIC (Salmonella dublin; [4]): 50 µg/mL (≈ 184 µM)
MIC [1, 5]: 50 µg/mL (≈ 184 µM)
MIC (Vibrio coli 3811; [6]): 50 µg/mL (≈ 184 µM)
responders at 60 mg/kg (Salmonella typhimurium): 80%

N#Cc1cn(CCCCl)nc1[N+](=O)[O-] [Compound 83, 1-(3-chloropropyl)-3-nitro-4-pyrazolecarbonitrile]
MIC (Streptococcus sp. 80; [2]): > 50 µg/mL
MIC (Escherichia coli; tube dilution, read-out: MIC): > 50 µg/mL
MIC (Mycoplasma gallisepticum; [3]): 50 µg/mL (≈ 233 µM)
MIC (Pasteurella multocida; tube dilution, read-out: MIC): > 50 µg/mL
MIC (Salmonella dublin; [4]): > 50 µg/mL
MIC [1, 5]: > 50 µg/mL
MIC (Vibrio coli 3811; [6]): 25 µg/mL (≈ 116 µM)
responders at 60 mg/kg (Salmonella typhimurium): 80%

CCS(=O)(=O)CCn1cc(C#N)c([N+](=O)[O-])n1 [Compound 86, 1-(2-ethylsulfonyethyl)-3-nitro-4-pyrazolecarbonitrile]
MIC (Streptococcus sp. 80; [2]): > 50 µg/mL
MIC (Escherichia coli; tube dilution, read-out: MIC): > 50 µg/mL
MIC (Mycoplasma gallisepticum; [3]): 50 µg/mL (≈ 194 µM)
MIC (Pasteurella multocida; tube dilution, read-out: MIC): > 50 µg/mL
MIC (Salmonella dublin; [4]): > 50 µg/mL
MIC [1, 5]: > 50 µg/mL
MIC (Vibrio coli 3811; [6]): 25 µg/mL (≈ 96.8 µM)

N#Cc1cn(CCBr)nc1[N+](=O)[O-] [Compound 91, 1-(2-bromoethyl)-3-nitro-4-pyrazolecarbonitrile]
MIC (Streptococcus sp. 80; [2]): 50 µg/mL (≈ 204 µM)
MIC (Escherichia coli; tube dilution, read-out: MIC): > 50 µg/mL
MIC (Mycoplasma gallisepticum; [3]): > 50 µg/mL
MIC (Pasteurella multocida; tube dilution, read-out: MIC): 12.5 µg/mL (≈ 51 µM)
MIC (Salmonella dublin; [4]): > 50 µg/mL
MIC [1, 5]: > 50 µg/mL
MIC (Vibrio coli 3811; [6]): 12.5 µg/mL (≈ 51 µM)

N#Cc1cn(-c2ccc([N+](=O)[O-])cc2)nc1[N+](=O)[O-] [Compound 92, 3-nitro-1-(4-nitrophenyl)-4-pyrazolecarbonitrile]
MIC (Streptococcus sp. 80; Streptococcus, SP.80): 50 µg/mL (≈ 193 µM)
MIC (Escherichia coli): > 50 µg/mL
MIC (Mycoplasma gallisepticum): 12.5 µg/mL (≈ 48.2 µM)
MIC (Pasteurella multocida): 0.78 µg/mL (≈ 3.01 µM)
MIC (Salmonella dublin): > 50 µg/mL
MIC ([1]; Staphylococcus aureus, SP.1130): 6.25 µg/mL (≈ 24.1 µM)
MIC (Vibrio coli 3811; 3811): 6.25 µg/mL (≈ 24.1 µM)

O=C(NN=Cc1ccc([N+](=O)[O-])o1)c1cn(CCO)nc1[N+](=O)[O-] [Compound 94, 1-(2-hydroxyethyl)-3-nitropyrazole-4-carboxylic acid, 5-nitrofurfurylidene hydrazide]
MIC (Streptococcus sp. 80; Streptococcus, SP.80): 25 µg/mL (≈ 73.9 µM)
MIC (Escherichia coli): 25 µg/mL (≈ 73.9 µM)
MIC (Mycoplasma gallisepticum): 6.25 µg/mL (≈ 18.5 µM)
MIC (Pasteurella multocida): < 1.56 µg/mL
MIC (Salmonella dublin): 25 µg/mL (≈ 73.9 µM)
MIC ([1]; Staphylococcus aureus, SP.1130): 6.25 µg/mL (≈ 18.5 µM)
MIC (Vibrio coli 3811; 3811): < 1.56 µg/mL

NC(=O)c1cn(-c2ncc([N+](=O)[O-])s2)nc1[N+](=O)[O-] [Compound 95, 3-nitro-1-(5-nitro-2-thiazolyl)pyrazole-4-carboxamide]
MIC (Streptococcus sp. 80; Streptococcus, SP.80): 50 µg/mL (≈ 176 µM)
MIC (Escherichia coli): > 50 µg/mL
MIC (Mycoplasma gallisepticum): 12.5 µg/mL (≈ 44 µM)
MIC (Pasteurella multocida): 3.12 µg/mL (≈ 11 µM)
MIC (Salmonella dublin): 25 µg/mL (≈ 88 µM)
MIC ([1]; Staphylococcus aureus, SP.1130): < 1.56 µg/mL
MIC (Vibrio coli 3811; 3811): < 1.56 µg/mL

CSCCn1cc(C(N)=O)c([N+](=O)[O-])n1 [Compound 97, 1-[2-(methylthio)ethyl]-3-nitropyrazole-4-carboxamide]
MIC (Streptococcus sp. 80; [2]): > 50 µg/mL
MIC (Escherichia coli; tube dilution, read-out: MIC): > 50 µg/mL
MIC (Mycoplasma gallisepticum; [3]): 25 µg/mL (≈ 109 µM)
MIC (Pasteurella multocida; tube dilution, read-out: MIC): 25 µg/mL (≈ 109 µM)
MIC (Salmonella dublin; [4]): > 50 µg/mL
MIC [1, 5]: > 50 µg/mL
MIC (Vibrio coli 3811; [6]): 12.5 µg/mL (≈ 54.3 µM)

NC(=O)c1cn(CCOC(=O)c2ccc(Cl)c(Cl)c2)nc1[N+](=O)[O-] [Compound 98, 2-(4-carbamoyl-3-nitropyrazol-1-yl)ethyl 3,4-dichlorobenzoate]
responders at 60 mg/kg (Salmonella typhimurium): 100%

NC(=O)c1cn(CCOC(=O)c2cccc(Cl)c2)nc1[N+](=O)[O-] [Compound 99, 2-(4-carbamoyl-3-nitropyrazol-1-yl)ethyl m-chlorobenzoate]
responders at 60 mg/kg (Salmonella typhimurium): 80%

Cn1cc(-c2nnc(N)s2)c([N+](=O)[O-])n1 [Compound 102, 2-amino-5-(1-methyl-3-nitro-4-pyrazolyl)-1,3,4-thiadiazole]
MIC (Streptococcus sp. 80; [2]): 50 µg/mL (≈ 221 µM)
MIC (Escherichia coli; tube dilution, read-out: MIC): 12.5 µg/mL (≈ 55.3 µM)
MIC (Mycoplasma gallisepticum; [3]): 12.5 µg/mL (≈ 55.3 µM)
MIC (Salmonella dublin; [4]): 12.5 µg/mL (≈ 55.3 µM)
MIC [1, 5]: 6.25 µg/mL (≈ 27.6 µM)
MIC (Vibrio coli 3811; [6]): 12.5 µg/mL (≈ 55.3 µM)
chicks protected of the 5-bird treated group (Salmonella typhimurium; salmonella challenge): at least three chicks of the 5-bird treated group
